Consider 1 molecule from patent publication US6596733B2, “Use of nitric oxide scavengers to treat side effects caused by therapeutic administration of sources of nitric oxide” (Medinox, Inc., priority 1998, dated 2003).

For data set [1] the following is noted: 10 mg/ml in drinking water for 14 days. The method, then:
(§1) A pressure sensor chip for a telemetric device (Data Scientific International, Saint Paul, Minn.) was implanted in the dorsal abdominal aorta of male Wistar rat (250-280 g). The rats were allowed to recover from the surgery over a period of 24 hours. The implanted rats were separated into two groups (n=3); One received 10 mg/ml of L-proline dithiocarbamate (L-PD) in drinking water and the other received only distilled water for 14 days. […] On average, in the experimental group, each rat received about 800 mg/kg/day for 14 days.

Data set [2] has as its system rats having physiological levels of nitric oxide. Particulars: rat, in vivo. The method, then: as §1

Regarding `NC(=S)S.O=C(O)[C@@H]1CCCN1` [L-PD, L-proline dithiocarbamate], in data set [1], the “amounts of water consumption, experimental vs control group” value is on record as “no significant difference” and the “weight gain, experimental vs control group” value is given as “no significant difference”. In addition, in data set [2], the “effect on blood pressure” value is recorded as “no effect” and the “effect on heart rate” value is recorded as “no effect”.
